Measurements taken from BigSolDB 2.1.

`O=C(O)c1cccc2ccccc12` gave a solubility (mole fraction) (in acetic acid, 293.15 K) of 0.0172, a solubility (mole fraction) (in acetic acid, 298.15 K) of 0.0194 and a solubility (mole fraction) (in acetic acid, 303.15 K) of 0.0224. For the same compound, the solubility (mole fraction) (in acetic acid, 308.15 K) was 0.0257, the solubility (mole fraction) (in acetic acid, 313.15 K) was 0.0296 and the solubility (mole fraction) (in acetic acid, 318.15 K) was 0.0334. For the same compound, the solubility (mole fraction) (in acetic acid, 323.15 K) was 0.0383, the solubility (mole fraction) (in acetic acid, 328.15 K) was 0.0439 and the solubility (mole fraction) (in acetic acid, 333.15 K) was 0.0503. The solubility (mole fraction) (in ethanol, 293.15 K) was 0.0282, the solubility (mole fraction) (in ethanol, 298.15 K) was 0.0311 and the solubility (mole fraction) (in ethanol, 303.15 K) was 0.0356. The solubility (mole fraction) (in ethanol, 308.15 K) was 0.0402, the solubility (mole fraction) (in ethanol, 313.15 K) was 0.0457 and the solubility (mole fraction) (in ethanol, 318.15 K) was 0.0513. For the same compound, the solubility (mole fraction) (in ethanol, 323.15 K) was 0.0574, the solubility (mole fraction) (in ethanol, 328.15 K) was 0.0654 and the solubility (mole fraction) (in ethanol, 333.15 K) was 0.0738. It also gave a solubility (mole fraction) (in ethyl acetate, 293.15 K) of 0.0294, a solubility (mole fraction) (in ethyl acetate, 298.15 K) of 0.0329 and a solubility (mole fraction) (in ethyl acetate, 303.15 K) of 0.0374. It also gave a solubility (mole fraction) (in ethyl acetate, 308.15 K) of 0.0418, a solubility (mole fraction) (in ethyl acetate, 313.15 K) of 0.0472 and a solubility (mole fraction) (in ethyl acetate, 318.15 K) of 0.0534. The solubility (mole fraction) (in ethyl acetate, 323.15 K) was 0.06, the solubility (mole fraction) (in ethyl acetate, 328.15 K) was 0.0673 and the solubility (mole fraction) (in ethyl acetate, 333.15 K) was 0.0754. The solubility (mole fraction) (in isobutanol, 293.15 K) was 0.0187, the solubility (mole fraction) (in isobutanol, 298.15 K) was 0.0213 and the solubility (mole fraction) (in isobutanol, 303.15 K) was 0.0257. The solubility (mole fraction) (in isobutanol, 308.15 K) was 0.0311, the solubility (mole fraction) (in isobutanol, 313.15 K) was 0.0364 and the solubility (mole fraction) (in isobutanol, 318.15 K) was 0.0427. The solubility (mole fraction) (in isobutanol, 323.15 K) was 0.0502, the solubility (mole fraction) (in isobutanol, 328.15 K) was 0.0588 and the solubility (mole fraction) (in isobutanol, 333.15 K) was 0.0685. For the same compound, the solubility (mole fraction) (in isopropanol, 293.15 K) was 0.0251, the solubility (mole fraction) (in isopropanol, 298.15 K) was 0.0284 and the solubility (mole fraction) (in isopropanol, 303.15 K) was 0.034. For the same compound, the solubility (mole fraction) (in isopropanol, 308.15 K) was 0.0401, the solubility (mole fraction) (in isopropanol, 313.15 K) was 0.0472 and the solubility (mole fraction) (in isopropanol, 318.15 K) was 0.0544. The solubility (mole fraction) (in isopropanol, 323.15 K) was 0.0636, the solubility (mole fraction) (in isopropanol, 328.15 K) was 0.0731 and the solubility (mole fraction) (in isopropanol, 333.15 K) was 0.0852. The solubility (mole fraction) (in methanol, 293.15 K) was 0.0206, the solubility (mole fraction) (in methanol, 298.15 K) was 0.0229 and the solubility (mole fraction) (in methanol, 303.15 K) was 0.0269. It also gave a solubility (mole fraction) (in methanol, 308.15 K) of 0.0304, a solubility (mole fraction) (in methanol, 313.15 K) of 0.0351 and a solubility (mole fraction) (in methanol, 318.15 K) of 0.0392. For the same compound, the solubility (mole fraction) (in methanol, 323.15 K) was 0.0443, the solubility (mole fraction) (in methanol, 328.15 K) was 0.0496 and the solubility (mole fraction) (in methanol, 333.15 K) was 0.0557. It also gave a solubility (mole fraction) (in methyl acetate, 293.15 K) of 0.0257, a solubility (mole fraction) (in methyl acetate, 298.15 K) of 0.0301 and a solubility (mole fraction) (in methyl acetate, 303.15 K) of 0.0335. For the same compound, the solubility (mole fraction) (in methyl acetate, 308.15 K) was 0.0387, the solubility (mole fraction) (in methyl acetate, 313.15 K) was 0.043 and the solubility (mole fraction) (in methyl acetate, 318.15 K) was 0.0498. For the same compound, the solubility (mole fraction) (in methyl acetate, 323.15 K) was 0.055, the solubility (mole fraction) (in methyl acetate, 328.15 K) was 0.0622 and the solubility (mole fraction) (in n-butanol, 293.15 K) was 0.03. It also gave a solubility (mole fraction) (in n-butanol, 298.15 K) of 0.0344, a solubility (mole fraction) (in n-butanol, 303.15 K) of 0.0389 and a solubility (mole fraction) (in n-butanol, 308.15 K) of 0.0444. For the same compound, the solubility (mole fraction) (in n-butanol, 313.15 K) was 0.0514, the solubility (mole fraction) (in n-butanol, 318.15 K) was 0.0605 and the solubility (mole fraction) (in n-butanol, 323.15 K) was 0.0684. It also gave a solubility (mole fraction) (in n-butanol, 328.15 K) of 0.079, a solubility (mole fraction) (in n-butanol, 333.15 K) of 0.0901 and a solubility (mole fraction) (in n-propanol, 293.15 K) of 0.027. The solubility (mole fraction) (in n-propanol, 298.15 K) was 0.0302, the solubility (mole fraction) (in n-propanol, 303.15 K) was 0.0351 and the solubility (mole fraction) (in n-propanol, 308.15 K) was 0.0407. For the same compound, the solubility (mole fraction) (in n-propanol, 313.15 K) was 0.0461, the solubility (mole fraction) (in n-propanol, 318.15 K) was 0.0536 and the solubility (mole fraction) (in n-propanol, 323.15 K) was 0.0604. It also gave a solubility (mole fraction) (in n-propanol, 328.15 K) of 0.0702 and a solubility (mole fraction) (in n-propanol, 333.15 K) of 0.0795.
